Experiments:
PMM2-CDG fibroblasts = conditions: cited from earlier work
PMM2-CDG patients = test: Nijmegen Pediatric CDG Rating Scale (NPCRS) in patients on epalrestat; type: in vivo, human
Text: The primary objective of the study was to assess the efficacy and safety of epalrestat treatment in 3 PMM2-CDG pediatric subjects prior to a planned Phase III clinical trial (Oral epalrestat therapy in Pediatric Subjects with PMM2-CDG, NCT04925960). The secondary objective was to assess the ability of epalrestat to improve clinically relevant aspects of PMM2-CDG such as increased urine polyols (sorbitol, mannitol), abnormal glycosylation (carbohydrate deficient transferrin), abnormal coagulation (ATIII=antithrombin III), impaired liver function (ALT=Alanine Transaminase, AST=Aspartate Transaminase), neurologic function (Brief Ataxia Rating Scale=BARS), severity of phenotype (Nijmegen Pediatric CDG Rating Scale=NPCRS). The ability of epalrestat to inhibit polyol production was monitored by evaluating urine polyol levels (sorbitol, mannitol), which are elevated in PMM2-CDG. Next, carbohydrate deficient transferrin, which is abnormal in PMM2-CDG, was evaluated in order to assess improvement of glycosylation following epalrestat treatment. CDT mono-oligo/dioligo ratio and a-oligo/dioligo ratio are used to evaluate glycosylation abnormalities. Transferrin normally occurs with two glycan chains (di-oligo). In the case of glycosylation abnormalities, glycan chains are missing (A-oligo transferrin has no glycan chains, mono-oligo has one glycan chain, di-oligo has two glycan chains). The higher ratio of a-oligo/di-oligo and mono-oligo/di-oligo indicate glycosylation abnormalities are present. Therefore, improvement in a-oligo/di-oligo and mono-oligo/di-oligo ratios can be used to monitor improvement or worsening of glycosylation status. Changes in the liver enzymes AST, ALT, which are frequently elevated in PMM2-CDG, were monitored both as part of a safety study and as part of monitoring clinical improvement in coagulation. Neurologic improvement was assessed by modified BARS scores in 2 patients (3rd patient was not eligible for the test due to age at the start of the trial). NPCRS was assessed at every visit to assess changes in the severity of the patients' phenotype. Additionally, the frequency of adverse events, changes in vital signs, complete blood count, and changes in BMI were monitored.
Two patients were started on epalrestat on single patient investigational new drug (IND) (P5 IRB: 19-010017; IND #145262; P6 Protocol PMM2-CDG-001/A). Epalrestat was initiated on the parents' own initiative in the third patient (P7). Two patients were in their second year of epalrestat treatment, while the third, was in the 3rd year of treatment. Physical, neurological, and biochemical examinations were performed in 3 PMM2-CDG patients at baseline, and at every three months after the start of the epalrestat treatment. Patients underwent NPCRS phenotype severity assessment and biological sampling at every visit. Epalrestat (Ono Pharmaceuticals, Osaka, Japan) was taken orally 3 times per day (TID) before meals in a divided dose, with dosage escalation throughout the treatment. The pharmacological profile of epalrestat was as described elsewhere (Ligezka et al, Ann. Neurol., 90(6):887-900 (2021)). The starting dosage in P5 and P6 was 0.8 mg/kg/day, while P7 was started on 0.5 mg/kg/day due to their young age. P7 dosage was increased to 0.8 mg/day after a month, once safety was established. Blood and urine samples were collected routinely. Urine polyols, carbohydrate deficient transferrin (CDT), anti-thrombin III (ATIII), liver enzymes (ALT, AST), and complete blood count (CBC) were performed. Modified Brief Ataxia Rating Scale was used to assess ataxia in the 2 patients (P5, P6; P7 was not eligible for the test due to age). The modified BARS scale included Archimedes spiral test, but not the abnormalities of the ocular pursuit system and the scale range was 0-54. Goal attainment scale (GAS) was administered as described per study protocol (ClinicalTrials.gov Identifier: NCT04199000). […]

**Q.** Which “overall glycosylation as assessed by glycoproteomics” value (PMM2-CDG fibroblasts; PMM2-CDG fibroblasts) does the source give for `CC(/C=C1\SC(=S)N(CC(=O)O)C1=O)=C\c1ccccc1` [epalrestat] here?
**A.** Its value is “overall glycosylation improvement”.

**Q.** What about the glycosylation in vitro (PMM2-CDG fibroblasts; PMM2-CDG, Ligezka et al 2021) of the same compound?
**A.** The glycosylation in vitro was “improved glycosylation”.

**Q.** And the “Total NPCRS (max 78)” value (PMM2-CDG patients; P5, 12 months, 1.5 mg/kg day, baseline 24)?
**A.** Its value is 20.

**Q.** And the “Total NPCRS (max 78)” value (PMM2-CDG patients; P5, 24 months, 2 mg/kg day, baseline 24)?
**A.** Its value is 18.

**Q.** What about the “Total NPCRS (max 78)” value (PMM2-CDG patients; P5, 28 months, 3 mg/kg day, baseline 24) of the same compound?
**A.** Its value is 18.

**Q.** And the “Phenotype severity (NPCRS)” value (PMM2-CDG patients; P5, P7 improved, words)?
**A.** Its value is “improvement was noted in 2 out of 3 patients”.

**Q.** What about the “Total NPCRS (max 78)” value (PMM2-CDG patients; P6, 12 months, 1.5 mg/kg day, baseline 19) of the same compound?
**A.** The value was 19.

**Q.** And the “Total NPCRS (max 78)” value (PMM2-CDG patients; P6, 18 months, 3 mg/kg day, baseline 19)?
**A.** Its value is 18.

**Q.** And the “Total NPCRS (max 78)” value (PMM2-CDG patients; P7, 12 months, 1.5 mg/kg day, baseline 18)?
**A.** Its value is 15.

Reference: patent US20260335294A1, “TREATING CONGENITAL DISORDERS OF GLYCOSYLATION” (Mayo Foundation for Medical Education and Research, priority 2022, published 2026)
